Test results as given in publication PMC8669712, “G Protein-Coupled Receptor GPR35 Suppresses Lipid Accumulation in Hepatocytes” (ACS Pharmacology & Translational Science, 2021).
Values joined by “and” are separate entries in the source; they are usually repeats but may differ in a detail not shown here. Identical values can stand only once. Like-named read-outs stand apart in the source and are kept apart here. One block for each compound: values may come before it. *1 amine or outer side, *2 acyl side, *3 side chain or, on linkers, in order; H or OH if unused. Where a SMILES comes first, the peptide text is derived from it. Bridges are numbered along the chain shown (N, C = ends). [ ]: non-standard residue; d: D form. The star is where a group is joined. Leu(3R-OH,Nα-propionyl) = CCC(=O)N[C@H](C(=O)*)[C@H](O)C(C)C; X1 = CC(C)[C@@H](O[*:3])[C@H](N[*:1])C(=O)[*:2]; NMeT = CN[C@H](C(=O)O)[C@@H](C)O; dPhLac = O=C(O)[C@H](O)Cc1ccccc1; NMeA = CN[C@@H](C)C(=O)O; NMeDha = C=C(NC)C(=O)O

Columns and labels:
[1] = target: mouse GPR35 (Mus musculus, UniProt Q9ES90); test: β-arrestin-based interaction assay, agonist potency at mouse GPR35; type: cell-based
[2] = tested on: hepatocytes from GPR35 knock-out mice; test: Oil Red O lipid accumulation in hepatocytes from GPR35 knock-out mice
Experimental: (§1) All mice were bred as WT or homozygous onto a C57BL/6N background. Animals were cared for in accordance with national guidelines on animal experimentation. All animal experiments were conducted under a home office license held by the authors. WT, humanized GPR35a, or KO male mice at 3–4 months of age were used in this study. These mice were fed ad libitum with a standard mouse chow diet. Briefly, mouse primary hepatocytes were isolated using a two-step collagenase perfusion technique.[45] Twelve-well plates or xCELLigence E plates were coated with rat tail collagen I solution (Thermo Fisher Scientific) overnight at 37 °C and washed with PBS. […] After each drug treatment, hepatocytes were stained with Oil Red O and quantified as described. […]
(§2) Lipid accumulation was measured by Oil Red O staining. […] After PBS washing, Oil Red O was extracted from cells using 150 μl of isopropanol and OD510 nm measured. […] These cells were then stained with Hoechst 33342 (1 μg/mL) and the fluorescence intensity of Hoechst (represents the DNA content in cells) was measured using a CLARIOstar plate reader (BMG LABTECH). Oil Red O accumulation was corrected for differences in DNA content and expressed as relative absorbency, taking the control condition (treated with vehicle only) as 1.

[3] = tested on: hepatocytes from wild-type mice; test: Oil Red O lipid accumulation in hepatocytes from wild-type mice; type: cell-based, mouse; settings: 48 h; for EC50: hepatocytes from wild-type mice, co-incubation with T0901317 5 × 10^–6 M, read-out: EC50 for suppression of LXR-mediated lipid accumulation
Experimental: as §1, with “PBS. Isolated primary hepatocytes were seeded onto 12-well plates (8 × 10^4 cells/well) or xCELLigence E plates (2 × 10^4 cells/well) in Wiliam’s E medium (Thermo Fisher Scientific) supplemented with 10% fetal bovine serum (FBS) and 1× penicillin/streptomycin. Cells were maintained for 7 days with a fresh medium change every other day. […] Human GPR35 activation was examined using xCELLigence RTCA assay. To access the impact of GPR35 agonists on the lipid accumulation, WT and humanized GPR35 hepatocytes were incubated with T0901317 and/or GPR35 agonists/antagonists, as indicated (in DMEM medium containing 5% FBS and 1.5% BSA) for 48 h. Alternatively, GPR35 KO hepatocytes were incubated with drugs, as indicated for 5 days.” for “PBS.”
as §2

[4] = target: human GPR35a (Homo sapiens, UniProt Q9HC97); test: β-arrestin-based interaction assay, agonist potency at human GPR35a; type: cell-based
[5] = tested on: HepG2 cells; test: Label-free cellular impedance assay (xCELLigence) in HepG2 cells; type: cell-based, human; settings: for effect of signaling pathway inhibitor pretreatment on the impedance response to lodoxamide: HepG2 cells, FR900359 1 × 10^–7 M, Pertussis toxin 100 ng/mL, Y27632 1 × 10^–5 M
Experimental: HepG2 cells were seeded onto xCELLigence E plates (2 × 10^4 cells/well) and incubated for 24 h at 37 °C. To evaluate GPR35 activation and its downstream G protein signaling, HepG2 cells or primary mouse hepatocytes were exposed to GPR35 antagonists or G protein inhibitors 1 h (overnight for Pertussis toxin) prior to GPR35 agonist stimulation. After the addition of GPR35 agonist or vehicle control, the impedance (represented as “cell index”) was recorded every 30 s over a 2 h period using xCELLigence RTCA (Agilent). Each experiment was repeated at least three times.

[6] = tested on: HepG2 cells; test: Oil Red O staining of LXR (T0901317)-induced lipid accumulation in HepG2 cells; type: cell-based, human; settings: 4 × 10^–6 M, 48 h
Experimental: Human hepatocellular carcinoma HepG2 cells were grown in Minimum Essential Medium (MEM) supplemented with 10% fetal bovine serum (FBS), 2 mM L-glutamine, 1× non-essential amino acid, 1 mM sodium pyruvate, and 1× penicillin/streptomycin. Materials for cell culture were all from Sigma-Aldrich (St. Louis, MO) or Thermo Fisher Scientific (Waltham, MA). Cells were incubated in a humidified CO2 incubator at 37 °C. […] Cells were seeded onto a 12-well plate (1 × 10^5 cells/well) for 24 h prior to drug treatment. […] Lipid accumulation was measured by Oil Red O staining.

[7] = tested on: GPR35 knock-out clones of HepG2 cells; test: Oil Red O lipid accumulation in GPR35 knock-out clones of HepG2 cells; type: cell-based, human; settings: T0901317 4 × 10^–6 M, 48 h, higher baseline
Experimental: Human hepatocellular carcinoma HepG2 cells were grown in Minimum Essential Medium (MEM) supplemented with 10% fetal bovine serum (FBS), 2 mM L-glutamine, 1× non-essential amino acid, 1 mM sodium pyruvate, and 1× penicillin/streptomycin. Materials for cell culture were all from Sigma-Aldrich (St. Louis, MO) or Thermo Fisher Scientific (Waltham, MA). Cells were incubated in a humidified CO2 incubator at 37 °C. Experiments were performed when cell confluence reached 80%. Cells were seeded onto a 12-well plate (1 × 10^5 cells/well) for 24 h prior to drug treatment. […] Expression of full-length mRNA from the GPR35 gene was eliminated using a dual synthetic gRNA/RNP approach[43] with one guide cutting the intron and one in the exon region to generate a nonfunctional GPR35 protein. The gRNAs were designed with the CRISPR Finder (Welcome Sanger Institute). […] Transfected cells were plated and analyzed for editing efficiency 24-48 h after electroporation. […] To further quantify and capture the genomic DNA deletion, PCR primers listed in Table S1 were designed to amplify the genomic DNA surrounding the target site. […] The amplified PCR products were subjected to paired-end sequencing using NextSeq500 from Illumina using paired-end chemistry with a 150-bp read length. […] The impedance was recorded using xCELLigence RTCA. […] Lipid accumulation was measured by Oil Red O staining.

[8] = tested on: hepatocytes from hGPR35a-HA-expressing mice; test: Oil Red O lipid accumulation in hepatocytes from hGPR35a-HA-expressing mice; type: cell-based, mouse; settings: T0901317 8 × 10^–6 M
Experimental: All mice were bred as WT or homozygous onto a C57BL/6N background. Animals were cared for in accordance with national guidelines on animal experimentation. All animal experiments were conducted under a home office license held by the authors. WT, humanized GPR35a, or KO male mice at 3–4 months of age were used in this study. These mice were fed ad libitum with a standard mouse chow diet. Briefly, mouse primary hepatocytes were isolated using a two-step collagenase perfusion technique.[45] Twelve-well plates or xCELLigence E plates were coated with rat tail collagen I solution (Thermo Fisher Scientific) overnight at 37 °C and washed with PBS. Isolated primary hepatocytes were seeded onto 12-well plates (8 × 10^4 cells/well) or xCELLigence E plates (2 × 10^4 cells/well) in Wiliam’s E medium (Thermo Fisher Scientific) supplemented with 10% fetal bovine serum (FBS) and 1× penicillin/streptomycin. Cells were maintained for 7 days with a fresh medium change every other day. […] Human GPR35 activation was examined using xCELLigence RTCA assay. To access the impact of GPR35 agonists on the lipid accumulation, WT and humanized GPR35 hepatocytes were incubated with T0901317 and/or GPR35 agonists/antagonists, as indicated (in DMEM medium containing 5% FBS and 1.5% BSA) for 48 h. Alternatively, GPR35 KO hepatocytes were incubated with drugs, as indicated for 5 days. In the T0901317 pretreatment model, human GPR35 hepatocytes were stimulated with T0901317 for 2 days and then further treated with lodoxamide for a further 3 days. After each drug treatment, hepatocytes were stained with Oil Red O and quantified as described. Each experiment was repeated at least three times.
Lipid accumulation was measured by Oil Red O staining. A working solution of Oil Red O was prepared, as described with modification.[46] After drug treatment, cells were washed with PBS and fixed with formalin solution for 1 h at 4 °C. Then, cells were stained with Oil Red O working solution for 10 min at room temperature. After PBS washing, Oil Red O was extracted from cells using 150 μl of isopropanol and OD510 nm measured. After the lipid extraction, cells were further soaked in PBS overnight at 4 °C. These cells were then stained with Hoechst 33342 (1 μg/mL) and the fluorescence intensity of Hoechst (represents the DNA content in cells) was measured using a CLARIOstar plate reader (BMG LABTECH). Oil Red O accumulation was corrected for differences in DNA content and expressed as relative absorbency, taking the control condition (treated with vehicle only) as 1.

[9] = tested on: GPR35 genome-edited HepG2 clones; test: Label-free cellular impedance assay in GPR35 genome-edited HepG2 clones 19 and 27; type: cell-based, human
From the text: Expression of full-length mRNA from the GPR35 gene was eliminated using a dual synthetic gRNA/RNP approach[43] with one guide cutting the intron and one in the exon region to generate a nonfunctional GPR35 protein. The gRNAs were designed with the CRISPR Finder (Welcome Sanger Institute). HepG2 cells were transfected with the Neon Transfection System from Thermo Fisher Scientific (Waltham, MA), according to the manufacturer’s instructions. Briefly, CrRNA and tracrRNA were annealed to gRNA at 95 °C for 5 min. Next, cells were transfected with gRNA, Cas9, and the electroporation enhancer, according to the manufacturer’s instructions. All crRNAs, tracrRNA, SpCas9 nuclease, and the electroporation enhancer were purchased from Integrated DNA Technologies (Coralville, IA). Transfected cells were plated and analyzed for editing efficiency 24–48 h after electroporation. Single-cell clones were generated by single-cell FACS sorting. Clones were expanded and to access editing efficiency, genomic DNA from cell clones was extracted and subjected to PCR to confirm the genome deletion. To further quantify and capture the genomic DNA deletion, PCR primers listed in Table S1 were designed to amplify the genomic DNA surrounding the target site. The PCR primers were linked to the sequences of the Illumina Nextera adapters. The amplified PCR products were subjected to paired-end sequencing using NextSeq500 from Illumina using paired-end chemistry with a 150-bp read length. In addition, mRNA from KO clones was isolated and subjected to RT-PCR. To further confirm the abrogation of GPR35 activation in CRISPR KO clones, KO cells were seeded onto xCELLigence E plates (2 × 10^4 cells/well) for 24 h at 37 °C prior to the treatment of GPR35 agonists. The impedance was recorded using xCELLigence RTCA. […]
HepG2 cells were seeded onto xCELLigence E plates (2 × 10^4 cells/well) and incubated for 24 h at 37 °C. […] After the addition of GPR35 agonist or vehicle control, the impedance (represented as “cell index”) was recorded every 30 s over a 2 h period using xCELLigence RTCA (Agilent). […]

mouse GPR35, sequence (Q9ES90 whole entry): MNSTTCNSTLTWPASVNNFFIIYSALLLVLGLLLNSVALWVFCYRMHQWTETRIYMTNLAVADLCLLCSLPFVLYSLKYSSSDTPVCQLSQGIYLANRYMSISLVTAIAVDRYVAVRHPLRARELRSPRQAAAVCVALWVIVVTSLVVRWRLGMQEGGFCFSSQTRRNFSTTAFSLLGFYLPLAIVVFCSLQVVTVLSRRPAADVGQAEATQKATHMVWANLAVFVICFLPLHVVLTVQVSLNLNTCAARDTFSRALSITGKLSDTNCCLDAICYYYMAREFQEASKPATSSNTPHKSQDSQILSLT
human GPR35a, sequence (Q9HC97 whole entry): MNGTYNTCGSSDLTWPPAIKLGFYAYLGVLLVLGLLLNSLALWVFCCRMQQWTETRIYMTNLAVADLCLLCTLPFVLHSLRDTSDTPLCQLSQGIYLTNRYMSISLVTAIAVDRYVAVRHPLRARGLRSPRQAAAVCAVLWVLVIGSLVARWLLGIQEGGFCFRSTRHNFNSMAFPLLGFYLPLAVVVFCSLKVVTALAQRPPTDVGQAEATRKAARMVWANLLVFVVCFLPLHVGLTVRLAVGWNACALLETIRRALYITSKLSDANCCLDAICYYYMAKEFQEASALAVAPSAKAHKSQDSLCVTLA

fold more potent than lodoxamide at mouse GPR35 ([1]; bufrolin versus lodoxamide): more than 10 fold
fold lower potency at mouse GPR35 than at human GPR35 ([1]; mouse versus human GPR35): ~10 fold
EC50 ([1]; read-out: EC50 at the mouse GPR35): < 100 nM
EC50 ([1]; β-arrestin-based interaction assay, read-out: mouse GPR35, pEC50 (converted)): 155 nM
suppression of lipid accumulation induced by T0901317 in hepatocytes from GPR35 knock-out mice ([2]; treatment for 5 days): did not suppress lipid accumulation
ratio (log) (H/M) ([4]; log ratio of potency at human GPR35a over mouse GPR35): 1.02 ± 0.06
EC50 ([4]; β-arrestin-based interaction assay, read-out: human GPR35a, pEC50 (converted)): 14.8 nM
Compound: CCCCc1cc2c(=O)cc(C(=O)O)[nH]c2c2c(=O)cc(C(=O)O)[nH]c12 [bufrolin, 6-butyl-4,10-dioxo-1,7-dihydro-1,7-phenanthroline-2,8-dicarboxylic acid]
EC50 ([3]; Mus musculus, Hepatocyte): 78.7 nM
EC50 [3]: 79 nM and ~80 nM

Compound: C=C1C(=O)N[C@@H](C)C(=O)N(C)[C@@H](C)C(=O)N[C@@H]([C@H](OC(=O)[C@@H](NC(=O)CC)[C@H](O)C(C)C)C(C)C)C(=O)N(C)[C@@H]([C@@H](C)OC)C(=O)O[C@H](C(C)C)[C@H](NC(C)=O)C(=O)O[C@H](Cc2ccccc2)C(=O)N1C [FR900359] (Ac-[X1][dPhLac][NMeDha]A[NMeA][X1](Leu(3R-OH,Nα-propionyl))[NMeT](Me); ester 1-C)
effect of signaling pathway inhibitor pretreatment on the impedance response to lodoxamide [5]: without effect

Compound: O=S(=O)(c1ccccc1)N(CC(F)(F)F)c1ccc(C(O)(C(F)(F)F)C(F)(F)F)cc1 [T0901317, N-(2,2,2-trifluoroethyl)-N-[4-[2,2,2-trifluoro-1-hydroxy-1-(trifluoromethyl)ethyl]phenyl]benzenesulfonamide]
deposition of triglycerides and other lipids (Oil Red O) [6]: substantially increased
lipid accumulation on LXR activation in GPR35 knock-out clones [7]: still able to promote lipid accumulation
lipid accumulation (Oil Red O) in hepatocytes from hGPR35a-HA-expressing mice [8]: clear increase in lipid accumulation
effect of T0901317 on lipid accumulation in hepatocytes from GPR35 knock-out mice ([2]; equivalent time of exposure as in wild-type hepatocytes (48 h)): modest
lipid accumulation in mouse hepatocytes ([3]; wild-type mice, 5 × 10^–6 M): able to promote lipid accumulation

Compound: Nc1ncnc2c1ncn2[C@@H]1O[C@H](COP(=O)(O)OP(=O)(O)OP(=O)(O)O)[C@@H](O)[C@H]1O [ATP]
impedance response to ATP in wild-type HepG2 cells and GPR35 genome-edited clones ([9]; P2Y purinoceptor stimulus, control of responsiveness): enhanced electrical conductance

Compound: Pertussis toxin
effect of signaling pathway inhibitor pretreatment on the impedance response to lodoxamide [5]: small although a statistically nonsignificant reduction

Compound: C[C@@H](N)[C@H]1CC[C@H](C(=O)Nc2ccncc2)CC1 [Y27632]
effect of signaling pathway inhibitor pretreatment on the impedance response to lodoxamide [5]: all but eliminated

Compound: CCCOc1ccccc1-c1nc2nn[nH]c2c(=O)[nH]1 [zaprinast]
EC50 [1]: 661 nM
impedance signal in GPR35 genome-edited clones 19 and 27 ([9]; 1 × 10^–5 M): not in either clone 19 or 27
impedance signal in parental HepG2 cells ([5]; 1 × 10^–5 M): produced positive signals
